Results published in patent US20250114354A1, “COMBINATION TREATMENT REGIMENS - SMARCA2 DEGRADER WITH PD-1 INHIBITORS” (PRELUDE THERAPEUTICS INCORPORATED, priority 2023, published 2025).
Entries after “also recorded” stand apart in the source; their conditions may differ.

Legend:
[1] = test system: T cells (human PBMCs co-cultured with SMARCA4 deleted NCI-H1299 cells); experiment: Flow cytometry of T cell activation markers in co-culture of NCI-H1299 cells and human PBMCs; type: cell-based; settings: Formula (I) combined with Pembrolizumab, FIG. 1A
Source text: Human peripheral blood mononuclear cells (PBMCs) were co-cultured with NCI-H1299 cells (SMARCA4 deleted NSCLC) with Pembrolizumab and/or Formula (I). The cell samples from co-culture were stained for CD3 (T cell marker), CD8 (T cell marker), and CD25 (T cell activation marker) and analyzed by flow cytometry to determine percentages of cells with marker positive populations.
(§1) H1299 (CRL-5803) and H1975 (CRL-5908) were purchased from the American […]. Human Mononuclear Cells (PBMC) (HUMANPBMC-0001989) were purchased from BioIVT. NCI-H1299, NCI-H1975 and all CT26 cells were cultured in RPMI-1640 (ATCC, 30-2001) supplemented with 10% FBS (Gibco, 26140-079) and 1× penicillin-streptomycin (Thermofisher, 15140122). Human Peripheral Bloogd Mononuclear Cells (PBMCs) were cultured in RPMI-1640, 20% FBS, 100U/ml Human Recombinant IL-2 (Gibco, PHC0027) and 1× penicillin-streptomycin. All cells were maintained at 37° C. in 5% CO2 in a humidified incubator.
Samples from co-culture were collected in Eppendorf tubes and 500 ul of PBS was added. The samples were centrifuged (300 g, 5 minutes) to wash. Supernatant was removed and the pellet was resuspended in 200 ul FACS buffer. Samples were placed on ice for 15 minutes to block. After blocking, the samples were centrifuged (300 g, 5 minutes). […]

[2] = test system: IFN-gamma, IL-2 and Granzyme B in co-culture of NCI-H1299 cells and human PBMCs; experiment: Cytokine analysis (MSD U-PLEX) of co-culture supernatant; type: cell-based; settings: Formula (I) combined with Pembrolizumab; conditioned media; FIG. 1B
Protocol: Supernatant from the co-culture were plated into a 96-well plate and cytokines were analyzed using the MSD U-PLEX Immuno-Oncology Group 1 (Human) kit (MesoScale Discovery, Custom-made kit). Expressions of IFN-gamma, IL-2 and Granzyme B are shown.
as §1
Supernatant from the co-culture were plated into a 96-well plate and cytokines were analyzed using the MSD U-PLEX Immuno-Oncology Group 1 (Human) kit (MesoScale Discovery, Custom-made kit).

[3] = test system: SMARCA4 deleted A549 cells; experiment: Incucyte 3D tumor spheroid growth, A549 cells with HLA-matched T cells; type: cell-based, human
Protocol: Green fluorescence protein (GFP) positive A549 cells were cultured with or without HLA-matched T cells and treated with Formula (I) in the spheroid culture system. Representative figures of the 3D cancer cell spheroids were shown.
The data were generated with SMARCA4 deleted A549 cells.
(§2) GFP-tagged tumor cells were seeded in 96 well Ultra-Low Adherence (ULA) plates (Corning, 7007) (2000 cells/well) and centrifuged briefly (300 g, 30 seconds) to induce cell aggregation. The cells were incubated at 37° C. overnight to allow complete aggregation into spheroids. Following the addition of immune cells with treatment of Pembrolizumab (MedChemExpress, HY-P9902) (100 ug/ml) and/or Formula (I) (100 nM). Three-dimensional tumor spheroid growth was monitored using Sartorius' Incucyte® SX1 Live-Cell Analysis.

[4] = test system: SMARCA4 deleted NCI-H1299 cells; experiment: Incucyte 3D tumor spheroid growth, NCI-H1299 cells with human PBMCs; type: cell-based; settings: Formula (I) 100 nM with pembrolizumab 100 ug/ml; FIG. 2C
Protocol: (§3) The cells were treated with or without Formula (I) and/or pembrolizumab. The data were generated with SMARCA4 deleted NCI-H1299 and SMARCA4 WT NCI-H1975 cells.
as §2
(§4) H1299 and H1975 cells were seeded (500,000 cells/well) in 6 well Tissue Culture Treated plates (Corning 3516) and allowed to aggregate into tumor spheroids for 1-2 hours. Tumor spheroids were treated with 600 ul of Incucyte® Cytolight Lentivirus (Sartorius, 4481) for a MOI of 3 and 8 ug/ml Polybrene Transfection Reagent (Sigma-Aldrich, TR-1003). The cells were incubated at 37° C. overnight. Following incubation, media was removed and replaced with fresh media. GFP expression was monitored using Sartorius' Incucyte® SX1 Live-Cell Analysis System (9600-0031).

[5] = test system: SMARCA4 WT NCI-H1975 cells; experiment: Incucyte 3D tumor spheroid growth, NCI-H1975 cells with human PBMCs; type: cell-based; settings: Formula (I) 100 nM with pembrolizumab 100 ug/ml; FIG. 2C
Protocol: as §3, §2, §4

## Cc1ncsc1-c1ccc([C@H](C)NC(=O)[C@@H]2C[C@@H](O)CN2C(=O)[C@@H](c2cc(O[C@@H](C)CN3CC[C@@H](N4CCN5c6cc(-c7ccccc7O)nnc6NC[C@H]5C4)C3)no2)C(C)C)cc1 [Formula (I)]
[1]
  activated (CD25+) CD3+ T cells: increased
  activated (CD25+) CD8+ T cells: increased
[2]
  Gramzyme B level in co-culture supernatant: higher levels
  IFN-g level in co-culture supernatant: higher levels
  IL-2 level in co-culture supernatant: higher levels
[3]; Formula (I) 100 nM in the presence of T cells, quantitated GFP positive cells, FIG. 2A/2B
  T-cell mediated A549 killing: significantly increased; also recorded: promoted
[3]; Formula (I) 100 nM with HLA-matched T cells, FIG. 2A
  growth of A549 cancer cells (GFP positive) in 3D spheroid culture: inhibited growth
[4]
  combination effect on NCI-H1299 spheroids cultured with PBMCs, compared to single agent treated groups: showed more
[5]
  combination effect on NCI-H1975 spheroids cultured with PBMCs: the combination effect was not seen
